The source of these data is patent US9127040B2, “Regulation of sodium channels by PLUNC proteins” (The University of North Carolina at Chapel Hill, priority 2011, dated 2015).

One assay has as its target T1, γENaC (Homo sapiens, UniProt P51170).
T1 construct: expressed in transfected cells; host or cells: HEK293T cells (lysate)
The experiment in a line: Biotinylated peptide pull-down of ENaC subunits from HEK293T cells. The class given is binding. Particulars: subunits individually expressed. As for the experimental part:
HEK293T cells were transfected with double-tagged human ENaC subunits with HA and V5 epitopes at the N- and C-termini, respectively, in combination with wild-type untagged subunit cDNA. When all three ENaC subunits were expressed, 0.5 μg of each subunit were transfected per well. When expressed individually, 0.75 μg of the subunit were transfected per well. The transfected cells were lysed 24 h later using NP-40 buffer with 1× complete EDTA-free protease inhibitor (Roche, Basel, Switzerland). The lysate was centrifuged at 16,300×g for 15 minutes at 4° C. and the supernatant collected. Protein concentration was determined using the BCA assay and 500 μg of protein plus 0.25 mg peptide and 100 μL of neutravidin were added to a spin column and rotated end-over-end at 4° C. for 24 h (all ThermoFisher Scientific, Rockford, Ill., USA). Flow-through was collected by centrifugation at 1000×g for 30 s. […] The membrane was probed using 1:1000 anti-V5 antibody (Invitrogen, Carlsbad, Calif., USA) overnight at 4° C. in 3% fish gelatin in TBS-T. The blot was then incubated for 1 h at room temperature with an ECL sheep anti-mouse IgG secondary antibody and detected by ECL reagent (ThermoFisher Scientific, Waltham, Mass., USA) or by incubation with a goat anti-mouse IRDye secondary antibody and analyzed by an Odyssey infrared imaging system (LI-COR Biosciences, Lincoln, Nebr., USA).

A further assay has as its target T2, βENaC-eGFP (Homo sapiens, UniProt P51168).
T2 construct: expressed in transfected cells; host or cells: HEK cells
The assay can be described thus: Confocal imaging of βENaC-eGFP internalization in HEK cells. Type of assay: cell-based. Particulars: 1 h after 100 μM S18. The text has this: Ai, cartoon of αENaC-eGFP and βENaC-mCherry under basal conditions (γENaC not shown). Aii We hypothesize that S18 binding to the extracellular loop of βENaC (1) induces a conformational change in ENaC which is reflected as altered intracellular FRET (2). This change may facilitate NEDD4-2-induced ubiquitination (3), leading to internalization of αβγENaC (4). […] In contrast, exposure to aprotinin had no effect. All n=8-10. C, Typical confocal images of HEK cells expressing αγENaC and βENaC-eGFP before and 1 h after 100 μM S18. Cell outlines are traced in white.
Since ENaC is regulated by NEDD4-2 binding to its C-termini, which leads to ubiquitination of its N-termini and internalization, we propose that S18 causes a conformational change in ENaC, leading to increased ubiquitination followed by internalization (FIG. 21A). As a first step towards understanding the mechanism of action of SPLUNC1, we performed FRET on fluorescently tagged ENaCs. […] Furthermore, βENaC-eGFP internalized upon S18 binding (FIG. 21C), consistent with our surface biotinylation data from oocytes.

The next assay has as its target T3, αENaC (Homo sapiens, UniProt P37088).
T3 sequence (P37088 1-669): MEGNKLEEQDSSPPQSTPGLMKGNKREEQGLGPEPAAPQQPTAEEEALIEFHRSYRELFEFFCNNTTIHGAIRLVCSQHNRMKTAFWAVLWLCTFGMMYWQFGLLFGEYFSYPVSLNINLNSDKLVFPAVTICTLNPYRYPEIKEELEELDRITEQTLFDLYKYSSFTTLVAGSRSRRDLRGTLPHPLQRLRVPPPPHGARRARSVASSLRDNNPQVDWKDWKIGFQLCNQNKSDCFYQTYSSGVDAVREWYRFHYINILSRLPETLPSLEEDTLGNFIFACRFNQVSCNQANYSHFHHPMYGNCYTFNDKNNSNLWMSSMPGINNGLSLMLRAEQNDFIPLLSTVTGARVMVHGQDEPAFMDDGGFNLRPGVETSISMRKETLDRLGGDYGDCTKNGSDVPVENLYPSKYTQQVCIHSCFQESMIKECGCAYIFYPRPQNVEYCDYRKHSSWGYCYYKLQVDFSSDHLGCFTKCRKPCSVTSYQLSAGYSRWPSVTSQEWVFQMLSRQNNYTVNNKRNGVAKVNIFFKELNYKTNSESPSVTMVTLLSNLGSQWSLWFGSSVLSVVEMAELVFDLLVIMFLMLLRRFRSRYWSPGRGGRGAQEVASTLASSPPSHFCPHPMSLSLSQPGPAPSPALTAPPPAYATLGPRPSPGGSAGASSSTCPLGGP
The assay can be described thus: Texas red-SPLUNC1 binding assay on JME cells expressing yfp-αENaC. The arrangement: expressed in transfected cells; host or cells: JME nasal epithelial cells that no longer express ENaC, lentivirus pQCXIN. Particulars: Texas red-rSPLUNC1, 30 min, polarized JME cells with yfp-αENaC; Hill fit. As for the experimental part:
JME cells were incubated with varying concentrations of Texas red-labeled SPLUNC1 for 30 min followed by a 5× wash with PBS. After this time images were acquired with a Nikon Ti-S inverted microscope and were quantified to obtain specific and non-specific binding using Image J. Data were then fitted with a Hill Plot to obtain the Kd.
JME nasal epithelial cells express functional ENaCs (Tong et al., Am. J. Physiol. Lung Cell. Mol. Physiol. 287:L928 (2004)). However, this attribute is lost after several passages. Thus, passaged JME cells that no longer expressed ENaC were stably infected with a lentivirus containing yfp-αENaC or an empty vector as a control and the presence or absence of αENaC was confirmed using an antibody that was constructed “in-house” that was directed against αENaC (FIG. 8).
Recombinant SPLUNC1 was labeled with Texas red according to the manufacturer's instructions (Pierce) and was freshly labeled on the day of each binding experiment. […] After this time yfp (514 nm excitation) and Texas red fluorescence (590 nm excitation) were imaged under a 60× water objective on a Nikon Ti-S inverted microscope equipped with an Orca CCD camera (Hamamatsu) switchable filter wheels (Ludl). Background fluorescence was subtracted from all images and the mean thresholded intensity was quantified to obtain specific and non-specific binding using Image J.

Ends that are not written are not given here.

T2 sequence (P51168 whole entry, one chain of several): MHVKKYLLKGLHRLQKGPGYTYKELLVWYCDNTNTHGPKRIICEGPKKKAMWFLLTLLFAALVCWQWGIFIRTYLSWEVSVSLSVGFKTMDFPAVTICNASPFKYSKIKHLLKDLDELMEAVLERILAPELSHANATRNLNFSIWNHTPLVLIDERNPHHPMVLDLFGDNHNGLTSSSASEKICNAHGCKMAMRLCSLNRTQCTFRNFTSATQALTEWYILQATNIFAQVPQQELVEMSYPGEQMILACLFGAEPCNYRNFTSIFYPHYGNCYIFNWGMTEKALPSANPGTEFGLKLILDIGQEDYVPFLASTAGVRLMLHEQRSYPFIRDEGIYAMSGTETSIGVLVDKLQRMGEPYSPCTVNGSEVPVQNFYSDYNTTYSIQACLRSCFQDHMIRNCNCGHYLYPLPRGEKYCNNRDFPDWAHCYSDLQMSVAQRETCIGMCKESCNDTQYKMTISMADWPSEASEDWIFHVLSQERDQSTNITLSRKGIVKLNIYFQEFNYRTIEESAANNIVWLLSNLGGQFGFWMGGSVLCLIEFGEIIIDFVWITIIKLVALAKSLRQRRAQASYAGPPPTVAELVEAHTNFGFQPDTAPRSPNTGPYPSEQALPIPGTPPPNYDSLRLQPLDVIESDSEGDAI
T2 sequence (P51170 whole entry partner, one chain of several): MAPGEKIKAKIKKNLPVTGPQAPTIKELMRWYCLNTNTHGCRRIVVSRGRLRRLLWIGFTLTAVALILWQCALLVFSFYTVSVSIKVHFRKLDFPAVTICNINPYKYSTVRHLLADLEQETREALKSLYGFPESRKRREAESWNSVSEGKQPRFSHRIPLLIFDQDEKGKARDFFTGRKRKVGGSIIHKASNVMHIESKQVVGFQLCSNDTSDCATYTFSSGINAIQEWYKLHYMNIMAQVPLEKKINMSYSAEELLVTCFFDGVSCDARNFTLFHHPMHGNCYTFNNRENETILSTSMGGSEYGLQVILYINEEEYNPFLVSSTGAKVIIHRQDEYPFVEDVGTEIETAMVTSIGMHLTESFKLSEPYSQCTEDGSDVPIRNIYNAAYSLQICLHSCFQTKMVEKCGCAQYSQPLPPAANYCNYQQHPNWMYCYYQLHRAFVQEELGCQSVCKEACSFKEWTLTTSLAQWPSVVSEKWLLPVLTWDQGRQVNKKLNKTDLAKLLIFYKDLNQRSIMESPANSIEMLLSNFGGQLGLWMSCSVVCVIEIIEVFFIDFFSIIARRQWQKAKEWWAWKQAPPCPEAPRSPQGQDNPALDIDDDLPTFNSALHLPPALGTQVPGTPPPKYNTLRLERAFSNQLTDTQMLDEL
T1 sequence (P51170 whole entry): as the sequence (P51170 whole entry partner, one chain of several) above

On to GGLPVPLDQTLPLNVNPA [S18], for which the “binding to γENaC (pull-down)” value on γENaC is recorded as “without any detectable binding”. For the same molecule, the βENaC-eGFP internalization entry at βENaC-eGFP is “internalized”.

B1: SPLUNC1: human SPLUNC1 (SEQ ID NO:1), 256 amino acid secreted PLUNC family protein; rSPLUNC1 is the purified V5/6His-tagged recombinant form (protein, listed as Homo sapiens)
chain: MFQTGGLIVFYGLLAQTMAQFGGLPVPLDQTLPLNVNPALPLSPTGLAGSLTNALSNGLLSGGLLGILENLPLLDILKPGGGTSGGLLGGLLGKVTSVIPGLNNIIDIKVTDPQLLELGLVQSPDGHRLYVTIPLGIKLQVNTPLVGASLLRLAVKLDITAEILAVRDKQERIHLVLGDCTHSPGSLQISLLDGLGPLPIQGLLDSLTGILNKVLPELVQGNVCPLVNEVLRGLDITLVHDIVNMLIHGLQFVIKV
modifications: V5/6His tag in recombinant form
notes: rSPLUNC1 is the purified V5/6His-tagged recombinant form
Take B1: in the assay with αENaC, the Kd (in general, a measure of binding affinity in units of concentration) came to 55 ng/mL.
